US6482947B1, “Substituted (hetero) aryl compounds, process for their preparation, agents containing them and their use as safeners” (priority 1992, dated 2002)

Tests used:
[1] = test system: Oryza sativa (transplanted); assay: Safener action on transplanted rice, application by watering, visual damage assessment; assay type: in vivo; conditions: herbicide 450 g of a.i./ha, no safener, 3 days after transplanting, assessed 4 weeks after application
Experimental: Rice was sown in sandy soil in pots in a greenhouse and raised to a growth height of 24-25 cm. The rice was then transplanted into a water-covered soil and, 3 days after transplanting, treated with a herbicide or a herbicide/safener combination by watering. 4 weeks after application, plant damage was assessed visually compared with untreated controls (results see Table 9).

[2] = test system: Triticum aestivum (wheat); assay: Safener action on wheat, post-emergence greenhouse test, visual damage assessment; assay type: in vivo; conditions: no safener, 4-leaf stage, assessment after 4 weeks
Experimental: (§1) Seeds of wheat and barley were placed in sandy loam soil in plastic pots, raised to the 3- to 4-leaf stage in a greenhouse and then treated successively with the compounds according to the invention and the herbicides using the post-emergence method. The herbicides and the compounds of the formula I were applied in the form of aqueous suspensions or emulsions at an application rate of 300 l/ha (converted). 3-4 weeks after the treatment, the plants were assessed visually for damage of any type caused by the herbicides applied, in particular the extent of lasting growth inhibition being taken into account. The assessment was made in percentages compared with untreated controls.
(§2) Test conditions: Application at the 4-leaf stage; assessment after 4 weeks; 4 replications

[3] = test system: Triticum durum (hard wheat); assay: Safener action on hard wheat, post-emergence greenhouse test, visual damage assessment; assay type: in vivo; conditions: no safener, 4-leaf stage, assessment after 4 weeks
Experimental: as §1, §2

Oryza sativa (rice) = assay: Safener action on rice (flooded pots), damage assessment; assay type: in vivo; conditions: herbicide 300 g of a.i./ha, no safener; 3-leaf stage, assessment after 3 weeks
Experimental: Rice was sown in plastic pots and raised in a greenhouse under optimum growth conditions. After emergence, the pots were filled with water to 2 cm from the top, and this flooding level was maintained throughout the experiment. At the 3- to 4-leaf stage, the plants were then treated with the herbicides and the compounds of the formula I. 3 weeks after treatment, the plants were assessed for damage of any type caused by the herbicides, in particular the extent of lasting growth inhibition and thinning being considered.

Hordeum vulgare (barley) = assay: Safener action on barley, post-emergence greenhouse test, visual damage assessment; conditions: no safener
Experimental: as §1, §2
Test conditions: Application at the 3-leaf stage;
assessment after 2-3 weeks; 4 replications

corn (Zea mays) [4] = assay: Safener action on corn, post-emergence test, visual damage assessment; assay type: in vivo; conditions: no safener, 4-leaf stage, assessment after 4 weeks; for Damage [%] in corn varieties: Dea: variety Dea; for Damage [%] in corn varieties: Felix: variety Felix; for Damage [%] in corn varieties: Mutin: variety Mutin
Text: Corn plants, weed and weed grasses were raised to the 4- to 5-leaf stage in plastic pots outside or in the greenhouse and treated successively with herbicides and compounds of the formula I according to the invention using the post-emergence method. […] The assessment was made in percent compared with untreated controls.

corn (Zea mays) [5] = assay: as above; assay type: in vivo; conditions: herbicide 75 g of a.i./ha, no safener; 3-leaf stage, assessment after 3 weeks

With COP(=S)(OC)SCC(=O)N(c1ccc(Cl)cc1)C(C)C [H9, anilofos] as the compound, how does the “Damage [%] ORSA-T” value [1] read?
Its value is 50%.

What does the source list for CCOC(=O)[C@@H](C)Oc1ccc(Oc2nc3ccc(Cl)cc3o2)cc1 [H1, fenoxaprop-P-ethyl]?
Damage [%] TA ([2]; herbicide 100 g of a.i./ha): 10%; Damage [%] TA ([2]; herbicide 200 g of a.i./ha): 30%; Damage [%] TA ([2]; herbicide 400 g of a.i./ha): 40%; Damage [%] TD ([3]; herbicide 100 g of a.i./ha): 95%; Damage [%] TD ([3]; herbicide 200 g of a.i./ha): 95%; Damage [%] TD ([3]; herbicide 400 g of a.i./ha): 98%; Damage [%] ORSA (Oryza sativa (rice)): 80%; Damage [%] HV (Hordeum vulgare (barley); herbicide 100 g of a.i./ha, 4-leaf stage, assessment after 4 weeks): 80%; Damage [%] HV (Hordeum vulgare (barley); herbicide 200 g of a.i./ha, 3-leaf stage, assessment after 2-3 weeks): 85%; Damage [%] HV (Hordeum vulgare (barley); herbicide 200 g of a.i./ha, 4-leaf stage, assessment after 4 weeks): 90%; Damage [%] HV (Hordeum vulgare (barley); herbicide 400 g of a.i./ha, 4-leaf stage, assessment after 4 weeks): 98%

How did the “Damage to corn [%] Alois variety” value (corn (Zea mays) [4]; herbicide 38 g of a.i./ha) turn out when COc1cc(OC)nc(Oc2cccnc2C(=O)OCc2ccccc2)n1 [H4, benzyl 3-(4,6-dimethoxypyrimidin-2-yloxy)pyridine-2-carboxylate] was run?
The value was 20%.

What about the “Damage to corn [%] Felix variety” value (corn (Zea mays) [4]; herbicide 38 g of a.i./ha) of the same compound?
Its value is 0%.

And the “Damage to corn [%] Alois variety” value (corn (Zea mays) [4]; herbicide 75 g of a.i./ha)?
The value was 40%.

What about the “Damage to corn [%] Felix variety” value (corn (Zea mays) [4]; herbicide 75 g of a.i./ha) of the same compound?
Its value is 30%.

What about the “Damage to corn [%] Alois variety” value (corn (Zea mays) [4]; herbicide 150 g of a.i./ha) of the same compound?
Its value is 55%.

What about the “Damage to corn [%] Felix variety” value (corn (Zea mays) [4]; herbicide 150 g of a.i./ha) of the same compound?
The value was 50%.

What about the “Damage to corn [%] Alois variety” value (corn (Zea mays) [4]; herbicide 300 g of a.i./ha) of the same compound?
Its value is 60%.

And the “Damage to corn [%] Felix variety” value (corn (Zea mays) [4]; herbicide 300 g of a.i./ha)?
Its value is 60%.

For COc1cc(OC)nc(NC(=O)NS(=O)(=O)c2ncccc2N(C)S(C)(=O)=O)n1 [H8, 3-(4,6-dimethoxypyrimidin-2-yl)-1-[3(-N-methyl-N-methylsulfonylamino)-2-pyridylsulfonyl]urea], which “Damage [%] in corn varieties: Dea” value (corn (Zea mays) [4]; herbicide 25 g a.i./ha) is on record?
Its value is 0%.

And the “Damage [%] in corn varieties: Dea” value (corn (Zea mays) [4]; herbicide 50 g a.i./ha)?
The value was 0%.

What about the “Damage [%] in corn varieties: Dea” value (corn (Zea mays) [4]; herbicide 100 g a.i./ha) of the same compound?
The value was 10%.

And the “Damage [%] in corn varieties: Dea” value (corn (Zea mays) [4]; herbicide 200 g a.i./ha)?
Its value is 35%.

What about the “Damage [%] in corn varieties: Felix” value (corn (Zea mays) [4]; herbicide 25 g a.i./ha) of the same compound?
The value was 25%.

And the “Damage [%] in corn varieties: Felix” value (corn (Zea mays) [4]; herbicide 50 g a.i./ha)?
The value was 55%.

What about the “Damage [%] in corn varieties: Felix” value (corn (Zea mays) [4]; herbicide 100 g a.i./ha) of the same compound?
The value was 65%.

What about the “Damage [%] in corn varieties: Felix” value (corn (Zea mays) [4]; herbicide 200 g a.i./ha) of the same compound?
Its value is 70%.

What about the “Damage [%] in corn varieties: Mutin” value (corn (Zea mays) [4]; herbicide 25 g a.i./ha) of the same compound?
Its value is 15%.

And the “Damage [%] in corn varieties: Mutin” value (corn (Zea mays) [4]; herbicide 50 g a.i./ha)?
Its value is 30%.

And the “Damage [%] in corn varieties: Mutin” value (corn (Zea mays) [4]; herbicide 100 g a.i./ha)?
The value was 60%.

What about the “Damage [%] in corn varieties: Mutin” value (corn (Zea mays) [4]; herbicide 200 g a.i./ha) of the same compound?
Its value is 65%.

And the “Damage in corn [%] Felix variety” value (corn (Zea mays) [5])?
The value was 75%.

With COC(=O)c1ccc(I)cc1S(=O)(=O)NC(=O)Nc1nc(C)nc(OC)n1.[Na] [H3, methyl 4-iodo-2-[3-(4-methoxy-6-methyl-1,3,5-triazin-2-yl)ureidosulfonyl]benzoate, sodium salt] as the compound, how does the “Damage [%] TA” value ([2]; herbicide 12 g of a.i./ha) read?
Its value is 15%.

What about the “Damage [%] TA” value ([2]; herbicide 25 g of a.i./ha) of the same compound?
Its value is 80%.

And the “Damage [%] TA” value ([2]; herbicide 50 g of a.i./ha)?
Its value is 70%.

What does the source list for COC(=O)C(C)Oc1ccc(Oc2ccc(Cl)cc2Cl)cc1 (stereo not shown) [H2, diclofop-methyl]?
Damage [%] HV (Hordeum vulgare (barley); herbicide 900 g of a.i./ha, 4-leaf stage, assessment after 4 weeks): 10%; Damage [%] HV (Hordeum vulgare (barley); herbicide 1800 g of a.i./ha, 4-leaf stage, assessment after 4 weeks): 40%

How did the “Damage [%] in corn varieties: Felix” value (corn (Zea mays) [4]; herbicide 8 g a.i./ha) turn out when COC(=O)c1sccc1NC(=O)Nc1nc(C)nc(OC)n1 [H7, 1-(2-methoxycarbonylthiophen-3-yl)-3-(4-methoxy-6-methyl-1,3,5-triazin-2-yl)urea] was run?
The value was 0%.

What about the “Damage [%] in corn varieties: Felix” value (corn (Zea mays) [4]; herbicide 15 g a.i./ha) of the same compound?
The value was 15%.

And the “Damage [%] in corn varieties: Felix” value (corn (Zea mays) [4]; herbicide 30 g a.i./ha)?
The value was 40%.

What about the “Damage [%] in corn varieties: Felix” value (corn (Zea mays) [4]; herbicide 60 g a.i./ha) of the same compound?
The value was 75%.

What about the “Damage [%] in corn varieties: Mutin” value (corn (Zea mays) [4]; herbicide 8 g a.i./ha) of the same compound?
Its value is 5%.

And the “Damage [%] in corn varieties: Mutin” value (corn (Zea mays) [4]; herbicide 15 g a.i./ha)?
Its value is 10%.

What about the “Damage [%] in corn varieties: Mutin” value (corn (Zea mays) [4]; herbicide 30 g a.i./ha) of the same compound?
The value was 30%.

And the “Damage [%] in corn varieties: Mutin” value (corn (Zea mays) [4]; herbicide 60 g a.i./ha)?
The value was 70%.
